Test results from US9284350B2, “IAP BIR domain binding compounds” (Pharmascience Inc., priority 2010, dated 2016).

How the values were obtained:
[1] = system: Colorectal carcinoma HCT116 cells; test: Cell death assay (MTT) in combination with HGS ETR1; type: cell-based; conditions: with HGS ETR1 30 ng/ml, 72 hours, read-out: HCT116+ mapatubimap EC50
Protocol: Colorectal carcinoma HCT116 cells were cultured as monolayers in 96 well plates at a density of 2000 cells per well in McCoy's 5a medium (HyClone) supplemented with 2.2 g/L sodium bicarbonate, 10% FBS (HyClone) and 1% penicillin/streptomycin (HyClone). 24 hours later, triplicate wells were treated with HGS ETR1 (30 ng/ml) in combination with compound. Cells were incubated in the presence of compound and HGS agonistic Trail receptor antibody, ETR1 (Mapatumamab, 30 ng/ml) for 72 hours. Metabolic viability of remaining cells was assessed by MTT (thiazolyl blue tetrazolium bromide, Sigma) assay.
EC50 values (50% cell survival in the presence of compound as compared to untreated controls) were calculated from survival curves using BioAssay software (CambridgeSoft) and GraphPad Prism (Graph Pad Software Inc.). The results are provided in Table 3, below, wherein A=less than 50 nM; B=less than 250 nM; C=less than 1000 nM; and D=greater than 1000 nM.

c-IAP1 = molecular target: T1, c-IAP1 (Homo sapiens, UniProt Q13490); test: Fluorescence polarization-based competition assay, c-IAP1; type: binding; conditions: FP assay, ki derived from IC50
T1 construct: GST (N); made in house; host or cells: E. coli DH5α
Protocol: (§1) Binding of compounds of Formula 1 to target BIR domains was measured using a fluorescence-polarization (FP) assay. Fluorescence-polarization was evaluated using a GENios microplate reader (TECAN) Pro instrument with the excitation filter set at 485 nm and the emission filter set at 535 nm. The final amount of protein used in the assay corresponds to the amount of protein necessary to obtain 80% of the maximum FP value in a P1 or P2 fluorescent (FITC) probe saturation experiment. The compounds potency (IC50) and selectivity, was assessed in the presence of the amount of target protein established, fluorescent probe, and a 10 point serial dilution in assay buffer (50 mM Hepes, pH 7.5, 250 mcg/mL γ-globulin, 2 mM DTT, 1% DMSO) of the selected compounds.
(§2) Assays were carried out in duplicate using untreated black 96-well plates (Corning #3915) and a total volume of 100 microliters, containing 25 microliters of fluorescent probe at a final concentration of 2 nM in assay buffer, 25 microliters of diluted compound, 25 microliters of BIR protein into assay buffer and 25 microliters of assay buffer. Buffer only (blank) or probe only in buffer (G-factor) were used as controls for calibration. The plate was incubated at room temperature in the dark for one hour and FP values in millipolarization units (mP) were recorded using Genios Pro FP reader.
(§3) The measured FP values (mP) were then plotted against compound concentration, and IC50 values were calculated based on a sigmoidal dose-response (variable-slope) curve fit using GraphPad Prism version 4.02 for Windows, GraphPad Software, San Diego Calif. USA and/or CambridgeSoft BioAssay Enterprise Version 10.1. The IC50 value is the concentration of test compound at which 50% of the tracer was displaced. ki values were derived from the calculated IC50 values as described above and according to the equation described in Nikolovska-Coleska, Z. (2004) Anal Biochem 332, 261-273. The results are presented in Table 2, wherein A=less than 25 nM; B=less than 250 nM; C=less than 1000 nM; and D=greater than 1000 nM.

XIAP = molecular target: T2, XIAP (Homo sapiens, UniProt P98170); test: Fluorescence polarization-based competition assay, XIAP; type: binding; conditions: FP assay, ki derived from IC50
T2 construct: fused on or other part: GST tag at the N-terminus (pGEX4T vectors)
Protocol: as §1, §2, §3

T1 sequence (Q13490 251-363): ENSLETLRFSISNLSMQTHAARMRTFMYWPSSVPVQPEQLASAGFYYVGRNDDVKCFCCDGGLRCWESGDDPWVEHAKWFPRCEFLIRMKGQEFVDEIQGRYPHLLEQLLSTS
T2 sequence (P98170 246-497 limits assumed): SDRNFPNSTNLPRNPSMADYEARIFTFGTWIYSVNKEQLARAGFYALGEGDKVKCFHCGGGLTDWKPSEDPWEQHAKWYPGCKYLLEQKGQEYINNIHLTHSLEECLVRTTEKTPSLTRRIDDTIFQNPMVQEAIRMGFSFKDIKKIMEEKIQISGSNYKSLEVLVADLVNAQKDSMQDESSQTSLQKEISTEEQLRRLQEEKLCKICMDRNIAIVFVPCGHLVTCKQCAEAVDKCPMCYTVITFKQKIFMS

Ki (c-IAP1) | Ki (XIAP) | Compound | EC50 [1]
< 0.025 µM | < 0.025 µM | CN[C@@H](C)C(=O)N[C@H](C(=O)N1CCC[C@H]1CN(CCc1ccccc1)C(=O)c1cc2ccccn2c1)C(C)(C)C [Compound 8] | < 0.25 µM
< 0.025 µM | < 0.25 µM | CN[C@@H](C)C(=O)N[C@H](C(=O)N1CCC[C@H]1CN(CCc1ccccc1)C(=O)c1cn(C)cn1)C(C)(C)C [Compound 34] | < 0.25 µM
 |  | CN[C@@H](C)C(=O)N[C@H](C(=O)N1CCC[C@H]1CN(CCc1ccc(F)cc1)C(=O)c1cnc2ncccn12)C(C)(C)C [Compound 38] | < 0.25 µM
 |  | CN[C@@H](C)C(=O)N[C@H](C(=O)N1C[C@@H](Oc2ccc(F)cc2)C[C@H]1CN(CCc1ccc(F)cc1)C(=O)c1cnn(-c2ccc(F)cc2)n1)C(C)(C)C [Compound 119] | < 0.25 µM
< 0.025 µM | < 0.25 µM | CN[C@@H](C)C(=O)N[C@H](C(=O)N1CCC[C@H]1CN(CCc1ccc(F)cc1)C(=O)c1cn(-c2ccc(OC)cc2)cn1)C(C)(C)C [Compound 52] | < 0.25 µM
< 0.025 µM | < 0.25 µM | CN[C@@H](C)C(=O)N[C@H](C(=O)N1CCC[C@H]1CN(CCc1ccccc1)C(=O)c1cn2cccnc2n1)C1CCOCC1 [Compound 3] | < 1 µM
 |  | CN[C@@H](C)C(=O)N[C@H](C(=O)N1CCC[C@H]1CN(CCc1ccc(F)cc1)C(=O)c1cc(C)n(C)n1)C(C)(C)C [Compound 101] | < 0.05 µM
< 0.025 µM | < 0.25 µM | CN[C@@H](C)C(=O)N[C@H](C(=O)N1CCC[C@H]1CN(CCc1ccccc1)C(=O)c1cc2ccccc2n1C)C(C)(C)C [Compound 26] | < 1 µM
< 0.025 µM | < 0.25 µM | CN[C@@H](C)C(=O)N[C@H](C(=O)N1CCC[C@H]1CN(CCc1ccc(F)cc1)C(=O)c1cn2ccccc2n1)C1CCOCC1 [Compound 19] | < 0.05 µM
< 0.025 µM | < 0.25 µM | CN[C@@H](C)C(=O)N[C@H](C(=O)N1CCC[C@H]1CN(CCc1ccccc1)C(=O)c1nc2ccccc2[nH]1)C(C)(C)C [Compound 16] | < 1 µM
< 0.025 µM | < 1 µM | CN[C@@H](C)C(=O)N[C@@H](CN(C)C)C(=O)N1CCC[C@H]1CN(CCc1ccc(F)cc1)C(=O)c1cn2ccccc2n1 [Compound 57] | < 1 µM
< 0.025 µM | < 1 µM | CC[C@H](NC)C(=O)N[C@H](C(=O)N1CCC[C@H]1CN(CCc1ccccc1)C(=O)c1cn2cccnc2n1)C1CCCCC1 [Compound 1] | < 0.25 µM
< 0.025 µM | < 0.25 µM | CN[C@@H](C)C(=O)N[C@H](C(=O)N1CCC[C@H]1CN(CCc1ccccc1)C(=O)c1cn2cccnc2n1)C1CCCC1 [Compound 33] | < 0.25 µM
< 0.025 µM | < 0.25 µM | CN[C@@H](C)C(=O)N[C@H](C(=O)N1CCC[C@H]1CN(CCc1ccc(F)cc1)C(=O)c1coc(-c2ccccc2)n1)C(C)(C)C [Compound 64] | < 0.25 µM
< 0.025 µM | < 0.25 µM | CN[C@@H](C)C(=O)N[C@H](C(=O)N1CCC[C@H]1CN(CCc1ccccc1)C(=O)c1cn2cc(C)ccc2n1)C(C)(C)C [Compound 30] | < 0.25 µM
< 0.025 µM | < 0.25 µM | CN[C@@H](C)C(=O)N[C@H](C(=O)N1CCC[C@H]1CN(CCc1ccc(F)cc1)C(=O)c1cn2cc(NC(C)=O)ccc2n1)C(C)(C)C [Compound 43] | < 0.25 µM
 |  | CN[C@@H](C)C(=O)N[C@H](C(=O)N1C[C@@H](Oc2ccc(F)cc2)C[C@H]1CN(CCc1ccc(F)cc1)C(=O)c1cc(C)n(C)n1)C(C)(C)C [Compound 121] | < 0.05 µM
< 0.025 µM | < 0.025 µM | CN[C@@H](C)C(=O)N[C@H](C(=O)N1CCC[C@H]1CN(CCc1ccccc1)C(=O)c1ccc[nH]1)C(C)(C)C [Compound 23] | < 0.25 µM
< 0.025 µM | < 0.25 µM | CN[C@@H](C)C(=O)N[C@H](C(=O)N1CCC[C@H]1CN(CCc1ccc(F)cc1)C(=O)c1cn2cc(-c3ccccc3)ccc2n1)C(C)(C)C [Compound 48] | < 0.05 µM

Ki (c-IAP1) | Ki (XIAP) | Compound | EC50 [1]
< 0.025 µM | < 0.25 µM | CN[C@@H](C)C(=O)N[C@H](C(=O)N1CCC[C@H]1CN(CCc1ccccc1)C(=O)c1cn(C)c2ccccc12)C(C)(C)C [Compound 25] | 
 |  | CN[C@@H](C)C(=O)N[C@H](C(=O)N1CCC[C@H]1CN(CCc1ccc(F)cc1)C(=O)c1cnn(-c2ccc(F)cc2)n1)C1CCCCC1 [Compound 118] | < 0.25 µM
< 0.025 µM | < 0.25 µM | CN[C@@H](C)C(=O)N[C@H](C(=O)N1CCC[C@H]1CN(CCc1ccccc1)C(=O)c1c[nH]cn1)C(C)(C)C [Compound 21] | < 1 µM
< 0.025 µM | < 0.25 µM | CN[C@@H](C)C(=O)N[C@H](C(=O)N1CCC[C@H]1CN(CCc1ccc(F)cc1)C(=O)C(=O)Nc1ccc(OC)cc1)C(C)(C)C [Compound 41] | < 1 µM
< 0.025 µM | < 0.25 µM | CN[C@@H](C)C(=O)N[C@H](C(=O)N1CCC[C@H]1CN(CCc1ccc(F)cc1)C(=O)c1cn2cc(O)cnc2n1)C(C)(C)C [Compound 46] | < 1 µM
< 0.025 µM | < 0.25 µM | CN[C@@H](C)C(=O)N[C@H](C(=O)N1CCC[C@H]1CN(CCc1ccccc1)C(=O)c1cc2ccccc2[nH]1)C(C)(C)C [Compound 27] | < 1 µM
< 0.025 µM | < 0.025 µM | CN[C@@H](C)C(=O)N[C@H](C(=O)N1CCC[C@H]1CN(CCc1ccccc1)C(=O)c1cn2ccncc2n1)C(C)(C)C [Compound 35] | < 0.25 µM
< 0.025 µM | < 0.025 µM | CN[C@@H](C)C(=O)N[C@H](C(=O)N1CCC[C@H]1CN(CCc1ccc(F)cc1)C(=O)c1cn2cc(N)ccc2n1)C(C)(C)C [Compound 45] | < 0.05 µM
< 0.025 µM | < 0.25 µM | CN[C@@H](C)C(=O)N[C@H](C(=O)N1CCC[C@H]1CN(CCc1ccc(F)cc1)C(=O)C(=O)Nc1ccc(F)cc1)C(C)(C)C [Compound 42] | < 1 µM
< 0.025 µM | < 0.25 µM | CN[C@@H](C)C(=O)N[C@H](C(=O)N1CCC[C@H]1CN(CCc1ccccc1)C(=O)c1cn2cccnc2n1)C1CCCCC1 [Compound 5] | < 0.05 µM
< 0.025 µM | < 0.25 µM | CN[C@@H](C)C(=O)N[C@H](C(=O)N1CCC[C@H]1CN(CCc1ccc(F)cc1)C(=O)c1cn2cc(OC)ccc2n1)C(C)(C)C [Compound 51] | < 0.25 µM
< 0.025 µM | < 0.25 µM | CN[C@@H](C)C(=O)N[C@H](C(=O)N1CCC[C@H]1CN(CCc1ccccc1)C(=O)c1cn2ccccc2n1)C1CCCCC1 [Compound 13] | < 0.25 µM
< 0.025 µM | < 0.25 µM | CN[C@@H](C)C(=O)N[C@H](C(=O)N1CCC[C@H]1CN(CCc1ccccc1)C(=O)c1cn2ccc(C)cc2n1)C(C)(C)C [Compound 31] | < 0.25 µM
< 0.025 µM | < 0.25 µM | CN[C@@H](C)C(=O)N[C@H](C(=O)N1CCC[C@H]1CN(CCc1ccccc1)C(=O)c1cnc2ccccn12)C(C)(C)C [Compound 28] | < 1 µM
< 0.025 µM | < 0.25 µM | CN[C@@H](C)C(=O)N[C@H](C(=O)N1CCC[C@H]1CN(CCc1ccccc1)C(=O)c1ncc[nH]1)C(C)(C)C [Compound 22] | < 0.25 µM
< 0.025 µM | < 1 µM | CN[C@@H](C)C(=O)N[C@@H](COC)C(=O)N1CCC[C@H]1CN(CCc1ccc(F)cc1)C(=O)c1cn2ccccc2n1 [Compound 60] | < 1 µM
< 0.025 µM | < 0.25 µM | CN[C@@H](C)C(=O)N[C@H](C(=O)N1CCC[C@H]1CN(CCc1ccc(F)cc1)C(=O)c1cn2cc(F)ccc2n1)C(C)(C)C [Compound 39] | < 0.25 µM
< 0.025 µM | < 0.25 µM | CN[C@@H](C)C(=O)N[C@H](C(=O)N1CCC[C@H]1CN(CCc1ccccc1)C(=O)c1c[nH]c2ccccc12)C(C)(C)C [Compound 24] | < 0.25 µM
